Row | melting point | Compound
1 | 174 to 175 °C | CNC(=O)Cc1cc(=O)oc2cc(OCc3cccc(Cl)c3)ccc12
2 | 152 to 153 °C | Cc1nc(C2OC(CO)C(O)C2O)c(N)nc1OCc1ccccc1 (stereo unspecified)
3 | 195 to 197 °C | CCc1ccc(NC(=O)N[C@H]2C[C@H](C(=O)O)Nc3cc(Cl)cc(Cl)c32)cc1 (relative stereo)
4 | 111 to 113 °C | O=C(OCC1CCC(COC(=O)c2ccccc2)CC1)c1ccccc1 (stereo unspecified)
5 | 120 to 123 °C | O=CN(O)C(CS(=O)(=O)c1ccc(Oc2ccc(OC(F)(F)F)cc2)cc1)CS(=O)(=O)N1CCCC1 (stereo unspecified)
6 | 305 to 308 °C | O=c1[nH]ncc2ccc(/C=C/c3ccc(O)cc3)cc12
7 | 101 to 102 °C | Oc1cc(OCC(O)COc2ccccc2)ccc1C(=S)c1ccc(-c2ccccc2)cc1 (stereo unspecified)
8 | 108 to 109 °C | CC1=C(Cc2cccc(Br)c2)C(=O)C2C=CC=CC2C1=O (stereo unspecified)
9 | 73 to 74.5 °C | CCOC(=O)c1cc(OC)c(OCC)c(OCC)c1-c1c(C(=O)OCC)cc(OC)c2c1OCO2
10 | 101 to 102 °C | CC(=O)NC(=O)C(Cl)c1ccccc1 (stereo unspecified)
11 | 162 to 164 °C | CCC(CC)c1nnc(S)n(N)c1=O
12 | 106 to 107 °C | COP(=O)(OC)c1cc(Oc2c(Cl)cc(C(F)(F)F)cc2Cl)ccc1[N+](=O)[O-]
13 | 92 to 94 °C | CCCCc1oc2ccccc2c1C(=O)c1cc(Br)c(OCC(=O)O)c(Br)c1
14 | 124 to 125 °C | O=C(O)CCCCC=Cc1cn(-c2cccnc2)c2ccccc12
15 | 82 to 85 °C | COc1ccc(CN(C)CCCCc2ccc(NC(=O)c3cnc4ccccc4n3)cc2)cc1OC
16 | 106 to 108 °C | CCOc1cc(-n2nc(C)c(Cl)c2C)c(F)cc1Cl
17 | 190 to 191 °C | CCOc1ncc(NC(=O)Nc2c(CC)cccc2CC)c(-c2ccccc2Cl)n1
18 | 68 to 70 °C | CCc1nc(Cl)c(C(N)=O)n1Cc1ccc2oc(-c3ccccc3NS(=O)(=O)C(F)(F)F)c(Br)c2c1
19 | > 250 °C | COc1ccc2c(c1)C(=NNc1ccc(S(N)(=O)=O)cc1)C(=O)N2
20 | 252 to 253 °C | Nc1nnc(C(F)(F)F)c2c1cc1cccc(CCCN3CC4CCC(CC4)C3)n12

Row | melting point | Compound
21 | 210 to 214 °C | O=C1c2ccc([N+](=O)[O-])cc2COc2cc(Nc3ccc(F)cc3F)ccc21
22 | 66 to 75.5 °C | CC1Cc2c(c(Br)cc(F)c2-n2c(=O)cc(C(F)(F)F)n(C)c2=O)O1 (stereo unspecified)
23 | 197 to 198 °C | O=C(NC(Cc1ccccc1)C(=O)O)OCc1ccc(NC(=O)c2ccccc2)cc1 (stereo unspecified)
24 | 226 to 229 °C | CCc1ccc(N2CCCN(c3cc[nH]c(=S)c3C#N)CC2)cc1
25 | 94 to 95 °C | Cc1cccc(-c2ccc3c(ccn3Cc3ccc(C(C)(C)C)cc3)c2)c1
26 | 48 to 49 °C | Cc1cccc(Br)c1C=O
27 | 163 to 176 °C | COc1cc(C2=CCCCC2)c(Cl)cc1C(=O)N1Cc2ccc(C(=O)N(C)C[C@@H]3OC(=O)O[C@H]3[C@H](O)[C@H]3COC(=O)O3)n2Cc2ccccc21
28 | 98 to 100 °C | CS(=O)(=O)c1ccc(-c2oc3ccccc3c(=O)c2-c2ccc(F)cc2)cc1
29 | 128 to 130 °C | N#Cc1oc(-c2ccc(Cl)cc2)c2ccccc12
30 | 96.1 °C | CCCCCCCCCc1ccc(-c2ccc(OCC(OC3CCCCO3)C(F)(F)F)nn2)cc1 (stereo unspecified)
31 | 71 to 72 °C | CCCCCCCCC(CC(=O)Nc1ccccc1)CC(C)[N+](=O)[O-] (stereo unspecified)
32 | 177 to 180 °C | c1ccc(COc2ccc3c(c2)CCc2c-3[nH]c3ccc(OCc4ccccc4)cc23)cc1
33 | 140 °C | O=S(=O)(Nc1ccccc1O)c1ccccc1
34 | 170 to 172 °C | Cc1cc2c(cc1C(=O)C(C)CC(=O)O)NC(=O)CO2 (stereo unspecified)
35 | 126 to 128 °C | O=C(O)C(=O)c1ccc(CCCNC(=O)c2ccc3ccccc3c2)cc1
36 | 202 to 204 °C | CCOC(=O)c1cnc2c(C=O)cc(CN3CCOCC3)cc2c1O
37 | 255 to 260 °C | Cn1cc(C2=C(c3cn(C)c4cc(C#N)ccc34)C(=O)NC2=O)c2ccc(N)cc21
38 | 186 to 188 °C | CCOC(=O)C(=O)Nc1ccc2c(c1)-n1cc(C(=O)OC)nc1CO2
39 | 137 to 139 °C | COC(=O)C=Cc1cncn1Cc1ccccc1
40 | 120 to 123 °C | COc1cc(C=O)c(Cl)c(Cl)c1OC

The next lines start with the compound.

Row | Compound | melting point
41 | Cc1c(C(=O)OCc2ccccc2)sc2ccc3[nH]c4c(c3c12)CN(C)CC4 | 174 °C
42 | Cc1coc(Cc2ccc([N+](=O)[O-])cc2)n1 | 67 to 68 °C
43 | CC(C)n1cc(C(=O)C(F)(F)F)c2ccc([N+](=O)[O-])cc21 | 143 to 145 °C
44 | CC(C)(C)c1ccc(-c2nc(Cl)c3ccccc3n2)cc1 | 75 to 76.5 °C
45 | Cc1ccc(S(=O)(=O)Nc2cc(C(C)(C)C)c(O)c(C(C)(C)C)c2)cc1 | 160 to 180 °C
46 | CC12CCC3C(CCC4CC=CCC43C)C1CCC2C#N (stereo unspecified) | 110 to 112 °C
47 | COCCNc1nc(N)nc(-c2cc(Cl)ccc2Cl)n1 | 195 to 197 °C
48 | CCC(C)(C)n1nnnc1S | 104 to 106 °C
49 | CC(C)OC(=O)c1cc2c(cn1)[nH]c1cccc(Oc3ccc(Cl)cc3)c12 | 273 to 274 °C
50 | NC(=O)NCCNc1ccc([N+](=O)[O-])cc1 | 187 °C
51 | CCOc1ccc(Nc2nc(Nc3ccc4c(c3)OCCO4)ncc2F)cc1 | 164 to 167 °C
52 | CCOC(=O)Cc1nc(-c2ccc(Cl)cc2)oc1-c1ccsc1 | 127 to 128 °C
53 | Cc1c(C)c2c(c(C)c1NC(=O)CC(C)(C)C)C(c1ccc(C(C)O)cc1)CO2 (stereo unspecified) | 144 to 145 °C
54 | CC(=O)NNC1=Nc2ccc(Cl)cc2C(c2c(F)cccc2F)=NC1 | 274 to 277 °C
55 | CC(=O)NCc1cccc(C#N)c1 | 94 to 96 °C
56 | Cc1cc(C)cc(-c2nc(NC(=O)c3ccccc3)sc2-c2ccncc2)c1 | 285 to 286 °C
57 | Cc1c(Cc2ccc(C(C)C)cc2)c2c(c(C)c1NC(=O)CC(C)(C)C)C(N1CCCC1)C(C)(C)O2 (stereo unspecified) | 179 to 180 °C
58 | NC(=O)C(CCc1ccccc1)NC(=O)c1ccc2[nH]c(-c3ccccc3)c(-c3ccccc3)c2c1 (stereo unspecified) | 120 to 125 °C
59 | Cc1cc(C(O)C(Cl)(Cl)Cl)n(C)c1 (stereo unspecified) | 55 to 57 °C
60 | O=c1[nH]c2cc(-c3ccncc3)ccc2c(=O)o1 | 265 to 267 °C
61 | Cc1ccc(-c2ccc3c(c2)C=C(C(=O)Nc2ccc(CNc4ccccc4)cc2)CCO3)cc1 | 157 to 158 °C

Row | Compound | melting point
62 | O=C1NCCN1c1ccc(S(=O)(=O)Nc2ccc3c(c2)Cc2ccccc2-3)cc1 | 164 to 166 °C
63 | N#Cc1cc(NC(=O)c2ccn(-c3ccc(Cl)cc3)c2)ccc1N1CCN(C2CCOCC2)CC1 | 224 °C
64 | Cc1nc(N)nc(N)c1N=Nc1ccc(I)cc1 | 243 to 244 °C
65 | CN(C)S(=O)(=O)c1cc2c(O)cccc2o1 | 150 to 153 °C
66 | COc1cccc(-c2cc3nccnc3[nH]2)c1 | 194 to 196 °C
67 | Cc1nc2ccc(NS(=O)(=O)c3cccc(Cl)c3C)cc2o1 | 127 to 128 °C
68 | COc1ccc(C2=NN(Cc3ccc(C(=O)O)cc3)C(=O)[C@H]3CCCC[C@@H]23)cc1OC (relative stereo) | 135 to 139 °C
69 | CC(C)(C)OC(=O)C1CCC2(CCn3c(cc4ccccc43)C2)C1=O (stereo unspecified) | 129 to 131 °C
70 | CC(C)n1c(S(=O)(=O)c2ccc(O)cc2)nc2ccccc21 | 198 °C
71 | Cc1ccnc2c(Oc3ccccc3[N+](=O)[O-])cccc12 | 98 to 99 °C
72 | Cc1cc(O)c(SCCC(C)C)c(=O)o1 | 81 to 82 °C
73 | CCCOc1ccc(Br)cc1-c1nc2cc3nc[nH]c3cc2c(=O)[nH]1 | 154 to 155 °C
74 | CC(C)(S)CN1CCN(CCOCCO)CC1 | 38 °C
75 | O=C1CCC(c2ccc3[nH]c(-c4ccccc4Cl)cc3c2)=NN1 | 236 to 239 °C
76 | CC(=O)ON=Cc1cccc2c1C=Cc1ccccc1S2 | 144 to 145 °C
77 | Nc1nnc(SCC(CS(=O)(=O)c2ccc(-c3ccc(Cl)cc3)cc2)C(=O)O)s1 (stereo unspecified) | 184 to 186 °C
78 | Cc1ccc(CNC(=O)C2=C3N(CCC2=O)c2ccccc2N3CCN(C)C)cc1 | 120 to 122 °C
79 | Cc1cccc(Nn2c(-c3ccccc3)c(C(C)C)[nH]c2=S)c1 | 220 to 222 °C
80 | Cc1cccc(-c2ccc(=O)[nH]n2)c1 | 202 to 205 °C
81 | COc1ccc(-c2c(C(N)=O)c3n(c2Cl)CCN(C(=O)NC(C)(C)C)C3)cc1 | 168 to 170 °C
82 | COc1cc2c(cc1OC)CN(NC1=NCCN1)C2 | 191 to 192 °C

Row | Compound | melting point
83 | O=C(Nc1cn(C2CCCCO2)nc1C(=O)NCCNc1ccccc1)c1ccccn1 (stereo unspecified) | 182 to 183 °C
84 | Cn1cc(-c2cnccn2)cc(Cl)c1=O | 197 to 198 °C
85 | CC(C)(C)OC(=O)N1CCC2(CC1)CC(c1ccc(C#N)cc1)=NO2 | 169 to 171 °C
86 | Cc1cc(C)cc(CC(=O)Nc2[nH]c(=O)[nH]c(=O)c2C(C)C)c1 | 126 to 127 °C
87 | COc1ccc([C@H](C)NC(=O)c2cccnc2Oc2ccc(F)cc2)cc1 | 97 to 99 °C
88 | COC(=O)C(C)Oc1ccc(COc2ccc(Cl)cc2Cl)cc1 (stereo unspecified) | 64 °C
89 | Cc1cc(OCCN(C)C)ccc1NC(=O)c1ccc(N2CCNCC2)cc1 | 139 to 141 °C
90 | NC(=O)Cc1cccc(C(O)c2ccccc2)c1N (stereo unspecified) | 198 to 199 °C
91 | CC(=O)c1ccc(NC(=O)C(F)(F)F)nc1 | 147 to 149 °C
92 | CS(=O)(=O)c1ccc(Cl)c(C(=O)Nc2ccc(-n3nc(C(F)(F)F)cc3C3CC3)cc2)c1 | 132 to 135 °C
93 | CC(C)(C)N=NC1(C(N)=O)CCCCC1 | 86 to 92 °C
94 | Cc1nc(-c2cc3c(Oc4ccc(Cl)cc4)cncc3s2)no1 | 120 to 121 °C
95 | O=S(=O)(Oc1cccc(OCCC(c2ccccc2)(c2ccccc2)c2ccccc2)c1)c1ccccc1 | 124 to 125 °C
96 | CN1C(=O)CC[C@]2(C)c3ccc(-c4cccc5cccnc45)cc3CC[C@@H]12 | 205 to 207 °C
97 | Cc1ccc(N2N=C3c4cc(C)sc4CCCC3CC2=O)cc1 (stereo unspecified) | 117 to 119 °C
98 | CCOC(=O)c1cn2c(C)csc2n1 | 117 to 119 °C
99 | Cn1c(C(F)(F)F)cc(=O)n(-c2ccc3snc(CF)c3c2)c1=O | 201 to 202 °C
100 | CCc1nc2c(N)nc3ccccc3c2n1CC1(C(N)=O)CCC1 | 227 to 230 °C
101 | CC1C(=O)CSCC1=O | 131 to 133 °C

Reference: a melting point compilation (Tetko et al.; mined from patent text by program, amines drawn as free bases though some values may be those of a salt)
